Source: patent US20070225351A1, “Methods and compositions for controlling body weight and appetite” (priority 2002, published 2007)
Read-outs that look alike come from different tables or passages of the source.

Assays:
[1] = 13-week oral toxicity study in rats (body weight, food consumption, clinical pathology, organ weights); format: in vivo, rat; conditions: for mean cumulative body weight gain, lower than control: end of 13-week study; for mean body weight, lower than control: end of study
Protocol: One hundred and forty Crl:CD®(SD)IGS BR rats were divided into 7 groups of 20 rats (ten male and ten female). […] Individual body weights were recorded at least weekly, beginning approximately two weeks prior to test article administration (study week-2). Mean body weights and mean body weight changes were calculated for the corresponding intervals. Final body weights (fasted) were recorded prior to the scheduled necropsy.
For toxicology assessment, all animals were observed three times daily for mortality and moribundity. Clinical examinations were performed daily and detailed physical examinations were performed weekly. Following 13 weeks of dose administration, all surviving animals were euthanized.

[2] = Toxicokinetic evaluation in dogs; format: in vivo; conditions: beagle, dog, po; for AUC(0-t): read-out: AUC0-24 h
Protocol: Eighteen male and eighteen female beagle dogs were received from Ridglan Farms, Mt. Horeb, Wis. […] Each group consisted of four males and four females. All animals/sex/group were scheduled for the primary necropsy at the end of the 13-week treatment period.
The animals were observed twice daily for mortality and moribundity. Clinical examinations were performed daily at the time of dosing and approximately 1-2 and approximately 3 hours following dose administration. Detailed physical examinations were performed weekly. Clinical pathology evaluations (hematology, serum chemistry and urinalysis) were performed prior to the initiation of dose administration (study week-1) and prior to the scheduled necropsy (study week 13). Individual body weights were recorded weekly, beginning approximately two weeks prior to test article administration (study week-2). Mean body weights and mean body weight changes were calculated for each corresponding interval. Final body weights (fasted) were recorded prior to the scheduled necropsy. Blood samples for toxicokinetic evaluation were collected from all dogs on study days 0 and 88 at 0, 1, 2, 4, 8 and 24 hours after dose administration. […] Gross lesions were also examined from the 2.0 and 6.0 mg/kg/day groups.

[3] = female, blood, 6 mg/kg/day, female dogs, 6 mg/kg/day oral, Day 0
[4] = female, blood, 6 mg/kg/day, female dogs, 6 mg/kg/day oral, Day 88
[5] = female, blood, 20 mg/kg/day, female dogs, 20 mg/kg/day oral, Day 0
[6] = female, blood, 20 mg/kg/day, female dogs, 20 mg/kg/day oral, Day 88
[7] = female, in vivo, 2 mg/kg/day, female dogs, 2 mg/kg/day oral, Day 0
[8] = female, in vivo, 2 mg/kg/day, female dogs, 2 mg/kg/day oral, Day 88
[9] = male, blood, 2 mg/kg/day, male dogs, 2 mg/kg/day oral, Day 0
[10] = male, blood, 2 mg/kg/day, male dogs, 2 mg/kg/day oral, Day 88
[11] = male, in vivo, 6 mg/kg/day, male dogs, 6 mg/kg/day oral, Day 0
[12] = male, in vivo, 6 mg/kg/day, male dogs, 6 mg/kg/day oral, Day 88
[13] = male, in vivo, 20 mg/kg/day, male dogs, 20 mg/kg/day oral, Day 0
[14] = male, in vivo, 20 mg/kg/day, male dogs, 20 mg/kg/day oral, Day 88

Cl.Clc1ccc([C@@]23CNC[C@@H]2C3)cc1Cl (single isomer, unassigned) [(+)-1-(3,4-dichlorophenyl)-3-azabicyclo[3.1.0]hexane hydrochloride]
NOAEL at 13 weeks ([1]; both sexes, Crl:CD(SD)IGS BR, rat, in vivo, rats, oral administration for 13 weeks, read-out: no-observed-adverse-effect level (NOAEL)): 10 mg/kg/day
mean cumulative body weight gain, lower than control ([1]; female rats, 25 mg/kg/day oral): 13%
food consumption, lower than control ([1]; female rats, 25 mg/kg/day, first week): 16%
mean cumulative body weight gain, lower than control ([1]; female rats, 60 mg/kg/day oral): 13%
mean body weight, lower than control ([1]; female rats, 60 mg/kg/day oral): 9%
food consumption, lower than control ([1]; female rats, 60 mg/kg/day, first week): 32%
food consumption, lower than control ([1]; female rats, 60 mg/kg/day, second week): 11%
weekly food consumption, MEAN ([1]; female rats, 10 MG/KG/DAY group, WEEK −2 TO −1 (before dosing)): 18. C/ANIMAL/DAY
weekly food consumption, MEAN ([1]; female rats, 10 MG/KG/DAY, WEEK 0 TO 1): 17. C/ANIMAL/DAY
weekly food consumption, MEAN ([1]; female rats, 10 MG/KG/DAY, WEEK 1 TO 2): 19. C/ANIMAL/DAY
weekly food consumption, MEAN ([1]; female rats, 10 MG/KG/DAY, WEEK 2 TO 3): 20. C/ANIMAL/DAY
weekly food consumption, MEAN ([1]; female rats, 10 MG/KG/DAY, WEEK 3 TO 4): 20. C/ANIMAL/DAY
weekly food consumption, MEAN ([1]; female rats, 10 MG/KG/DAY, WEEK 4 TO 5): 19. C/ANIMAL/DAY
weekly food consumption, MEAN ([1]; female rats, 10 MG/KG/DAY, WEEK 5 TO 6): 18. C/ANIMAL/DAY
weekly food consumption, MEAN ([1]; female rats, 10 MG/KG/DAY, WEEK 6 TO 7): 18. C/ANIMAL/DAY
weekly food consumption, MEAN ([1]; female rats, 10 MG/KG/DAY, WEEK 7 TO 8): 18. C/ANIMAL/DAY
weekly food consumption, MEAN ([1]; female rats, 10 MG/KG/DAY, WEEK 8 TO 9): 18. C/ANIMAL/DAY
weekly food consumption, MEAN ([1]; female rats, 10 MG/KG/DAY, WEEK 9 TO 10): 18. C/ANIMAL/DAY
weekly food consumption, MEAN ([1]; female rats, 10 MG/KG/DAY, WEEK 10 TO 11): 18. C/ANIMAL/DAY
weekly food consumption, MEAN ([1]; female rats, 10 MG/KG/DAY, WEEK 11 TO 12): 18. C/ANIMAL/DAY
weekly food consumption, MEAN ([1]; female rats, 10 MG/KG/DAY, WEEK 12 TO 13): 17. C/ANIMAL/DAY
weekly food consumption, MEAN ([1]; female rats, 25 MG/KG/DAY group, WEEK −2 TO −1 (before dosing)): 17. C/ANIMAL/DAY
weekly food consumption, MEAN ([1]; female rats, 25 MG/KG/DAY, WEEK 0 TO 1): 16.** C/ANIMAL/DAY
weekly food consumption, MEAN ([1]; female rats, 25 MG/KG/DAY, WEEK 1 TO 2): 20. C/ANIMAL/DAY
weekly food consumption, MEAN ([1]; female rats, 25 MG/KG/DAY, WEEK 2 TO 3): 10. C/ANIMAL/DAY
weekly food consumption, MEAN ([1]; female rats, 25 MG/KG/DAY, WEEK 3 TO 4): 20. C/ANIMAL/DAY
weekly food consumption, MEAN ([1]; female rats, 25 MG/KG/DAY, WEEK 4 TO 5): 18. C/ANIMAL/DAY
weekly food consumption, MEAN ([1]; female rats, 25 MG/KG/DAY, WEEK 5 TO 6): 19. C/ANIMAL/DAY
weekly food consumption, MEAN ([1]; female rats, 25 MG/KG/DAY, WEEK 6 TO 7): 18. C/ANIMAL/DAY
weekly food consumption, MEAN ([1]; female rats, 25 MG/KG/DAY, WEEK 7 TO 8): 17. C/ANIMAL/DAY
weekly food consumption, MEAN ([1]; female rats, 25 MG/KG/DAY, WEEK 8 TO 9): 19. C/ANIMAL/DAY
weekly food consumption, MEAN ([1]; female rats, 25 MG/KG/DAY, WEEK 9 TO 10): 18. C/ANIMAL/DAY
weekly food consumption, MEAN ([1]; female rats, 25 MG/KG/DAY, WEEK 10 TO 11): 18. C/ANIMAL/DAY
weekly food consumption, MEAN ([1]; female rats, 25 MG/KG/DAY, WEEK 11 TO 12): 18. C/ANIMAL/DAY
weekly food consumption, MEAN ([1]; female rats, 25 MG/KG/DAY, WEEK 12 TO 13): 17. C/ANIMAL/DAY
weekly food consumption, MEAN ([1]; female rats, 60 MG/KG/DAY group, WEEK −2 TO −1 (before dosing)): 17. C/ANIMAL/DAY
weekly food consumption, MEAN ([1]; female rats, 60 MG/KG/DAY, WEEK 0 TO 1): 13.** C/ANIMAL/DAY
weekly food consumption, MEAN ([1]; female rats, 60 MG/KG/DAY, WEEK 1 TO 2): 17.* C/ANIMAL/DAY
weekly food consumption, MEAN ([1]; female rats, 60 MG/KG/DAY, WEEK 2 TO 3): 18. C/ANIMAL/DAY
weekly food consumption, MEAN ([1]; female rats, 60 MG/KG/DAY, WEEK 3 TO 4): 16. C/ANIMAL/DAY
weekly food consumption, MEAN ([1]; female rats, 60 MG/KG/DAY, WEEK 4 TO 5): 17. C/ANIMAL/DAY
weekly food consumption, MEAN ([1]; female rats, 60 MG/KG/DAY, WEEK 5 TO 6): 18. C/ANIMAL/DAY
weekly food consumption, MEAN ([1]; female rats, 60 MG/KG/DAY, WEEK 6 TO 7): 18. C/ANIMAL/DAY
weekly food consumption, MEAN ([1]; female rats, 60 MG/KG/DAY, WEEK 7 TO 8): 18. C/ANIMAL/DAY
weekly food consumption, MEAN ([1]; female rats, 60 MG/KG/DAY, WEEK 8 TO 9): 18. C/ANIMAL/DAY
weekly food consumption, MEAN ([1]; female rats, 60 MG/KG/DAY, WEEK 9 TO 10): 17. C/ANIMAL/DAY
weekly food consumption, MEAN ([1]; female rats, 60 MG/KG/DAY, WEEK 10 TO 11): 17. C/ANIMAL/DAY
weekly food consumption, MEAN ([1]; female rats, 60 MG/KG/DAY, WEEK 11 TO 12): 18. C/ANIMAL/DAY
weekly food consumption, MEAN ([1]; female rats, 60 MG/KG/DAY, WEEK 12 TO 13): 17. C/ANIMAL/DAY
mean cumulative body weight gain, lower than control ([1]; male rats, 25 mg/kg/day oral): 16%
mean body weight, lower than control ([1]; male rats, 25 mg/kg/day oral): 10%
food consumption, lower than control ([1]; male rats, 25 mg/kg/day, first week): 8%
mean cumulative body weight gain, lower than control ([1]; male rats, 60 mg/kg/day oral): 30%
mean body weight, lower than control ([1]; male rats, 60 mg/kg/day oral): 18%
food consumption, lower than control ([1]; male rats, 60 mg/kg/day, first week): 19%
food consumption, lower than control ([1]; male rats, 60 mg/kg/day, second week): 4%
alanine aminotransferase (ALT) level ([1]; rat, in vivo, 60 mg/kg/day): higher
alkaline phosphatase (ALP), higher ([1]; rat, in vivo, 60 mg/kg/day): 35-55%
bilirubin, higher ([1]; rat, in vivo, 60 mg/kg/day): 35-55%

Clc1ccc([C@]23CNCC2C3)cc1Cl (single isomer, unassigned; (+)) [(+)-1-(3,4-dichlorophenyl)-3-azabicyclo[3.1.0]hexane]
Tmax ([2]; female, blood, 2 mg/kg/day, female dogs, 2 mg/kg/day oral, Day 0): 1 h
Tmax ([2]; female, blood, 2 mg/kg/day, female dogs, 2 mg/kg/day oral, Day 88): 1 h
Cmax [2, 3]: 5120 ng/mL
Tmax [2, 3]: 1 h
AUC(0-t) [2, 3]: 13600 ng·h/mL
Cmax [2, 4]: 4850 ng/mL
Tmax [2, 4]: 1 h
Cmax [2, 5]: 9280 ng/mL
Tmax [2, 5]: 2 h
AUC(0-t) [2, 5]: 63600 ng·h/mL
Cmax [2, 6]: 8430 ng/mL
Tmax [2, 6]: 1 h
AUC(0-t) [2, 6]: 29600 ng·h/mL
Cmax [2, 7]: 635 ng/mL
AUC(0-t) [2, 7]: 1470 ng·h/mL
Cmax [2, 8]: 663 ng/mL
AUC(0-t) [2, 8]: 2150 ng·h/mL
AUC(0-t) ([2]; female, in vivo, 6 mg/kg/day, female dogs, 6 mg/kg/day oral, Day 88): 15900 ng·h/mL
Cmax [2, 9]: 507 ng/mL
Tmax [2, 9]: 1 h
AUC(0-t) [2, 9]: 1570 ng·h/mL
Cmax [2, 10]: 753 ng/mL
Tmax [2, 10]: 1 h
AUC(0-t) [2, 10]: 2280 ng·h/mL
Cmax [2, 11]: 4640 ng/mL
Tmax [2, 11]: 1 h
AUC(0-t) [2, 11]: 12800 ng·h/mL
Cmax [2, 12]: 4140 ng/mL
Tmax [2, 12]: 1 h
AUC(0-t) [2, 12]: 13100 ng·h/mL
Cmax [2, 13]: 11400 ng/mL
Tmax [2, 13]: 1 h
AUC(0-t) [2, 13]: 47800 ng·h/mL
Cmax [2, 14]: 7230 ng/mL
Tmax [2, 14]: 1 h
AUC(0-t) [2, 14]: 44000 ng·h/mL
